Experimental data: patent publication US20240081329A1, “NON-PROTEIN PHENYLALANINE ANALOGUES FOR INHIBITING CYANOBACTERIA AND PLANT GROWTH” (YISSUM RESEARCH DEVELOPMENT COMPANY OF THE HEBREW …, priority 2016, published 2024)
Entries after “also recorded” stand apart in the source; their conditions may differ.

What was measured:
[1] = tested on: Synechocystis PCC 6803; experiment: Growth inhibition / bleaching of cyanobacteria culture (absorbance OD=730, colonies on agar); type: cell-based; details: for effect on growth / killing of the cyanobacteria: water samples, OD=730
Description: FIGS. 3A-B depict the inhibition of cyanobacteria by the phenylalanine analogue of some embodiments of the invention (“F”). FIG. 3A—a graph depicting the inhibition of growth of cyanobacteria Synechocystis PCC 6803 by increasing concentrations of the phenylalanine analogue of some embodiments of the invention. FIG. 3B—raw data of the results shown in FIG. 3A as detected after 150 hours.
(§1) FIGS. 5A-E depict the effect of m-Tyr on killing cyanobacteria Microcystis aeruginosa (FIGS. 5A-B) and Synechocystis PCC 6803 (FIGS. 5C-E) from water samples. FIG. 5A is a graph depicting the effects of m-Tyr on lake Kinneret samples containing the highly toxic cyanobacteria, Microcystis aeruginosa. The tests were performed with samples collected from lake Kinneret, that are contaminated by its native toxic cyanobacteria Microcystis aeruginosa, in the absence (0) or presence of various m-Tyr concentrations (1-20 μM) as indicated. […] The growth rate was determined by the culture absorbance at OD=730. FIG. 5B—raw data of the water samples used in the experiment shown in FIG. 5A, in the presence of the indicated concentrations of m-Tyr. FIG. 5C—a graph depicting the effects of m-Tyr on the cyanobacteria, Synechocystis PCC 6803. The tests were performed with samples of Synechocystis PCC 6803, in the absence (0) or presence of various m-Tyr concentrations (1-1000 μM) as indicated. […] The growth rate was determined by the culture absorbance at OD=730. FIG. 5D—raw data of the water samples used in the experiment shown in FIG. 5C, in the presence of the indicated concentrations of m-Tyr. FIG. 5E—The cell mortality of the cyanobacteria Synechocystis PCC 6803 was evaluated by the numbers of colonies appearing on Agar plates.

[2] = tested on: Arabidopsis thaliana (var. Columbia); details: Bertin et al. 2007; cited from earlier work
[3] = tested on: A. thaliana; experiment: Combined treatment of Phe-analogues and glyphosate, A. thaliana root growth / seed-germination; type: in vivo, Arabidopsis thaliana
Description: FIG. 9 is an image depicting the effects of Phe-analogs, glyphosate and combination thereof on Arabidopsis thaliana (var. Columbia) seed-germination and seedlings establishment. “ZYX1”=m-Tyr (3′ OH phenylalanine); “ZYX2”=3′ fluoro phenylalanine; “RoundUp”=Glyphosate; “uM”=μicromolar.
For example, when inhibition of weed growth (e.g., A. thaliana) is achieved using an amount of 100 μM of glyphosate (based on TAIR database) when used in the absence of the effective amount of the compound depicted by Formula A, I or II, the concentration of glyphosate required for achieving the same growth inhibition of the weed in the presence of the effective amount of the compound depicted by Formula A, I or II is 10 μM of glyphosate, i.e., a reduction of about 90% in the concentration of glyphosate (e.g., using the ZYX1 compound as shown in FIG. 9).
Compared to herbicides (e.g., glyphosate) applied alone, the performance of herbicide mixtures can be either synergistic, or additive. Additivity is the combined action, which is equal to the total response predicted by taking into account the response of each herbicide applied alone. Synergism is the combined action of two herbicides where the observed response to their joint application is greater than the response predicted by Colby method [S. R. COLBY. Calculating Synergistic and Antagonistic Responses of Herbicide Combinations. […]

[4] = tested on: cyanobacteria; experiment: Viability experiments / toxicity to cyanobacteria; type: cell-based
Excerpt: (§2) Thus, m-Tyr and its related Phe-analogues represent the first selective agents against cyanoblooming, a serious threat to both marine ecology and global economy.

[5] = tested on: E. coli; experiment: Antibacterial assay, bacterial growth by optical density (OD=600 nm); type: cell-based, Escherichia coli; details: 0-1000 μM
Description: (§3) FIGS. 6A-B depict the effects of m-Tyr on the growth rates of model gram-positive and gram-negative bacteria. Bacterial growth was determined using optical density data (OD=600 nm) of E. coli and B. subtilis cultures at different time points and at different m-Tyr concentrations (0-1000 μM, the color index for m-Tyr concentration used is in the right side of each panel). FIG. 6A—E. coli; FIG. 6B—Bacillus subtilis; Note that cell growth of E. coli and Bacillus subtilis was not affected by m-Tyr, even when used at high concentrations of 1000 micromolar.

[6] = tested on: Microcystis aeruginosa; experiment: Lake Kinneret water samples containing toxic cyanobacteria, bleaching and growth (OD=730); type: cell-based
Description: as §1, with “aeruginosa.” for “aeruginosa. The tests were performed with samples collected from lake Kinneret, that are contaminated by its native toxic cyanobacteria Microcystis aeruginosa, in the absence (0) or presence of various m-Tyr concentrations (1-20 μM) as indicated.”

[7] = tested on: Bacillus subtilis; experiment: Antibacterial assay, bacterial growth by optical density (OD=600 nm); type: cell-based; details: 0-1000 μM
Description: as §3

[8] = Movellan et al. 2014; cited from earlier work
[9] = tested on: Arabidopsis thaliana (var. Columbia); experiment: Arabidopsis seed-germination and seedlings establishment on MS medium with Phe-analogues; type: in vivo; details: for appearance of treated seedlings (cotyledons, leaves): seedlings on MS medium with analogue; for effect on seed-germination: seeds sown on MS medium with 0-80 μM analogue
Excerpt: FIGS. 2A-D are images depicting the effects of m-Tyr and several other phenylalanine (Phe)-analogs, modified in the meta position of the R-group, on Arabidopsis thaliana (var. Columbia) seed-germination and seedlings establishment. FIG. 2A—m-Tyr; FIG. 2B—Phe-analog “CH3”; FIG. 2C—Phe-analog “F”; FIG. 2D—Phe-analog “CF3”.
The germination of Arabidopsis thaliana plants is inhibited by the Phe-analogues of some embodiments of the invention—The efficiency of the developed compounds modified at the ‘meta’ position of the phenyl ring (FIG. 1) were analysed on Arabidopsis thaliana (var. Columbia). Following […] for 5 days at 4° C., Arabidopsis seeds were sown on Murashige-Skoog medium (MS) supplemented with increased concentrations (0-80 μM) of different Phe-analogues (in which “Y” was either “CH3”, “F” or “CF3”; see, FIG. 1). […] It should be noted that many more phe-analogues can be easily synthesized chemically based on the present teachings.

[10] = tested on: yeast; experiment: Sensitivity of yeast cultures; type: cell-based; details: even at concentrations as high as 15 mM; data not shown
[11] = tested on: algae (Chlorella); experiment: Effect on algae; type: cell-based
Excerpt: as §2

[12] = tested on: marine bacteria; experiment: Effect on marine bacteria; type: cell-based
Excerpt: as §2

[13] = tested on: algae (chlamydomonas); experiment: Inhibition of algae; type: cell-based; details: even in the millimolar range
[14] = tested on: glyphosate resistant Lolium rigidum Gaudin; experiment: Combined treatment on glyphosate resistant weed, seed-germination and seedlings establishment; type: in vivo
Excerpt: FIG. 10 is an image depicting the effects of Phe-analogs, on glyphosate resistant Lolium rigidum Gaudin (weed) seed-germination and seedlings establishment. ZYX1=m-Tyr; “RoundUp”=Glyphosate; “uM”=μicromolar.
In recent years, Lolium rigidum Gaudin (annual ryegrass) resistance to a number of herbicides has started to spread worldwide.

[15] = tested on: A. thaliana; details: absence of Formula A, I or II compound; based on TAIR database; cited from earlier work
[16] = type: physicochemical
Excerpt: Although m-Tyr is an efficient allelopathic agent, its direct application for agriculture use is limited due to its instability in soil and aqueous environment [Movellan, J. et al. Synthesis and evaluation as biodegradable herbicides of halogenated analogs of L-meta-tyrosine. Environ. Sci. Pollut. Res. 21, 4861-4870 (2014)].

Q: Which results are given for `N[C@@H](Cc1cccc(O)c1)C(=O)O` [m-Tyr, 3-hydroxyphenylalanine]?
A: effect on growth / killing of the cyanobacteria ([1]; listed as meta tyrosine): effective; phytotoxic activity (inhibition of germination of angiosperms, root growth) [2]: promising phytotoxic activity; reduction in the concentration of glyphosate ([3]; combination of ZYX1 with glyphosate, FIG. 9): about 90%; effect on / toxicity to cyanobacteria ([4]; very low μM range): highly susceptible; also recorded: strongly affecting; also recorded: toxic; concentration as low as which addition to the growth media induces cell death ([4]; viability experiments): 0.5 µM; effect on cell growth [5]: did not affect cell growth; also recorded: no (or very little) effect; also recorded: not affected; effect on growth / killing of the cyanobacteria ([6]; OD=730): very strong effect; effect on growth / killing of the cyanobacteria ([6]; OD=730, listed as meta tyrosine): effective; bleaching of the cyanobacteria culture ([6]; increasing concentrations (printed 0 mM to 10 mM)): bleaching of the culture; effect on cell growth [7]: did not affect cell growth; also recorded: no (or very little) effect; also recorded: not affected; stability in soil and aqueous environment [8]: instability; appearance of treated seedlings (cotyledons, leaves) [9]: white cotyledons and yellowish leaves; chloroplast morphology, microscopic analysis ([9]; seedlings treated with 10 μM, data not shown): altered chloroplast morphologies and less grana lamella; effect on seed-germination [9]: strongly affected; sensitivity of yeast cultures [10]: not sensitive; effect on algae [11]: no obvious effects; effect on marine bacteria [12]: no obvious effects; inhibition of algae [13]: no inhibition effects

Q: What does the source list for `O=C(O)CNCP(=O)(O)O` [glyphosate]?
A: concentration of glyphosate required for the same growth inhibition in combination ([3]; in the presence of the effective amount of the compound (ZYX1, FIG. 9)): 10 µM; response of glyphosate resistant Lolium, applied separately ([14]; FIG. 10): resistance; elevated glyphosate concentration to which the Lolium variety is resistant ([14]; local Israeli variety of Lolium): 60 folds of the recommended concentration; amount of glyphosate achieving inhibition of weed growth, used alone [15]: 100 µM

Q: With `N[C@@H](Cc1cccc(F)c1)C(=O)O` [F, 3′ fluoro phenylalanine] as the compound, how does the “low concentration at which inhibition of growth rate is evident” value ([1]; culture absorbance at OD=730) read?
A: Its value is 6.25 µM.

Q: And the “bleaching of the cyanobacteria culture” value ([1]; increasing concentrations, 0 to 50 μM, FIG. 3B after 150 hours)?
A: Its value is “bleaching of the culture”.

Q: What about the “effect on growth / killing of the cyanobacteria” value [1] of the same compound?
A: Its value is “effective; also recorded: very strong effect”.

Q: What about the “appearance of treated seedlings (cotyledons, leaves)” value [9] of the same compound?
A: The value was “white cotyledons and yellowish leaves”.

Q: What about the effect on seed-germination [9] of the same compound?
A: The effect on seed-germination was “strongly affected”.

Q: What about the “stability compared with the meta tyrosine molecule” value [16] of the same compound?
A: Its value is “more stable”.
